The values that follow come from PubChem BioAssay (NCI).

In general, GI50 refers to the concentration at which growth is held to half of that of the control. Usually TGI stands for the concentration at which net growth stops. A lower TGI goes with more potent growth arrest.

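Five compound concentrations were applied to cells in 96-well plates for 48 hours; endpoints were derived by simple linear interpolation of the resulting dose-response curve. GI50 marks 50% less growth. TGI: total growth inhibition.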

Some test systems named below: BT-549 breast; T-47D breast; MDA-MB-231 breast; NCI/ADR-RES ovarian; MCF7 breast; XF 498 CNS; RXF-631 renal; DMS 114 small cell lung; MDA-N.
Common to all, as to assay: DTP human tumour cell line panel, 48 h

As for `C=C[C@]1(C)C=C2C(=O)[C@@]3(O)OC[C@@]4(CCCC(C)(C)C43O)C2(O)C(O)C1` (stereo not given in full), the GI50 was 3.47 µM with BT-549 breast; 0.759 µM with T-47D breast; 13.3 µM in the test on MDA-MB-231 breast; 2.33 µM with NCI/ADR-RES ovarian; 3.39 µM in the test on MCF7 breast. Moreover, the TGI in the test on BT-549 breast was found to be 13.2 µM; with T-47D breast it was 2.43 µM; with MDA-MB-231 breast, 27.3 µM; in the test with NCI/ADR-RES ovarian, 6.62 µM; in the test with MCF7 breast it was 15.3 µM.
In the case of `CCOC(=O)/C(C#N)=C1\N[C@H](C(=O)OCC)CO1`, the TGI in the test with XF 498 CNS is 78.1 µM; with RXF-631 renal, greater than 100 µM.
On to `COc1ccc2c(c1)C(=O)c1c-2n(CCCN2CCOCC2)c(=O)c2ccccc12`, for which the GI50 in the test on BT-549 breast is 2.55 µM; in the test with T-47D breast, 1.55 µM; with MDA-MB-231 breast, 15.4 µM; in the test on NCI/ADR-RES ovarian it was 3.8 µM; in the test on MCF7 breast, 0.291 µM. Further, the TGI in the test with BT-549 breast was 13.6 µM; in the test with T-47D breast, 7.41 µM; with MDA-MB-231 breast it was greater than 100 µM; in the test with NCI/ADR-RES ovarian, greater than 93.1 µM; with MCF7 breast, 13 µM.
`CC(CCCOC(c1ccccc1)(c1ccccc1)c1ccccc1)OC(=O)Nc1cc([N+](=O)[O-])cc([N+](=O)[O-])c1` (stereo not given): the TGI with DMS 114 small cell lung and in the test with RXF-631 renal was greater than 100 µM throughout.
Regarding `O=C(O)c1c[nH]cc1C(=O)O`, the TGI in the test on DMS 114 small cell lung and in the test with XF 498 CNS was greater than 100 µM each time.
In turn, `FC(F)(F)C12C34C=CC5(CCC6(C=CC1(CC3)O6)C52C(F)(F)F)O4` (stereo not given) yielded a TGI in the test on XF 498 CNS greater than 100 µM.
Turning to `CCOC(=O)c1c(C)n(Cc2ccc(Cl)cc2Cl)c2c1cc1oc(=O)c(=O)n3c(Cc4ccccc4)nc2c13`, the GI50 in the test with BT-549 breast is 2.55 µM; with T-47D breast, 4.9 µM; in the test with MDA-MB-231 breast, 2.77 µM; in the test on NCI/ADR-RES ovarian, 5.46 µM; with MCF7 breast, 2.52 µM. In addition, the TGI with BT-549 breast worked out at 6.4 µM; in the test on T-47D breast, 22.2 µM; in the test with MDA-MB-231 breast, 7.23 µM; in the test on NCI/ADR-RES ovarian, 18.3 µM; in the test on MCF7 breast, 8.07 µM.
Take `COc1cc2cc(Oc3ccc(NC(=O)c4ccc(Cl)c(C(F)(F)F)c4)cc3)c(C)nc2cc1OC`: the GI50 in the test on BT-549 breast is 8.86 µM; in the test with T-47D breast, 5.69 µM; with MDA-MB-231 breast it was 11.4 µM; with NCI/ADR-RES ovarian, 4.21 µM; with MCF7 breast, 8.95 µM. Further, the TGI in the test with BT-549 breast is 70.2 µM; with T-47D breast, 99.6 µM; in the test with MDA-MB-231 breast, 27.5 µM; in the test on NCI/ADR-RES ovarian, greater than 100 µM; with MCF7 breast it was greater than 100 µM.
For `N#Cc1ccccc1NC(=O)c1ccccc1`, the TGI in the test on XF 498 CNS was greater than 100 µM.
Consider `CC(=O)NC(CCCN(Cc1ccccc1)C(=O)N(CCCl)N=O)C(=O)NCc1ccccc1` (stereo not given), for which the values for the TGI in the test on DMS 114 small cell lung and in the test with XF 498 CNS were greater than 100 µM and greater than 60.4 µM, respectively.
Turning to `N/N=C(\Cc1ccccc1)NN=C(N)N`, the TGI with XF 498 CNS and with RXF-631 renal was greater than 100 µM throughout.
For the compound `COc1ccc(-c2ccc(/C=N/n3c(COc4ccc(Cl)cc4)n[nH]c3=S)o2)c([N+](=O)[O-])c1`, the GI50 with BT-549 breast is 13.6 µM; with T-47D breast, 9.57 µM; in the test with MDA-MB-231 breast it was 14.2 µM; with NCI/ADR-RES ovarian, 15.8 µM; in the test with MCF7 breast, 16.9 µM. Further, the TGI in the test on BT-549 breast was found to be 50 µM; with T-47D breast, 82.4 µM; in the test with MDA-MB-231 breast it was 48.5 µM; in the test on NCI/ADR-RES ovarian it was 50 µM; in the test on MCF7 breast, 56.9 µM.
Consider `CC(C)(Br)C(=O)/C=C/c1ccccc1`, for which the TGI is 3.76 µM with BT-549 breast; 21.4 µM in the test on MDA-N; greater than 52 µM with T-47D breast; greater than 69.8 µM in the test with MDA-MB-231 breast; greater than 75.5 µM with NCI/ADR-RES ovarian; 15.3 µM in the test on MCF7 breast.
For the compound `O=C(NN1C(=O)CSC1c1ccc(Cl)cc1)c1[nH]c2ccc(F)cc2c1-c1ccccc1` (stereo not given), the GI50 with BT-549 breast was 2.09 µM; in the test with T-47D breast, 3.73 µM; in the test on MDA-MB-231 breast, 2.81 µM; in the test on NCI/ADR-RES ovarian, 3 µM; with MCF7 breast, 2.85 µM. Besides, the TGI in the test with BT-549 breast is 5.37 µM; in the test with T-47D breast, 14.2 µM; in the test on MDA-MB-231 breast, 7.86 µM; with NCI/ADR-RES ovarian, 10.6 µM; in the test with MCF7 breast it was 8.58 µM.
`C=C(N=[N+]=[N-])c1cn(C2CC(O)C(CO)O2)c(=O)[nH]c1=O` (stereo not given): the TGI in the test on DMS 114 small cell lung and with XF 498 CNS was greater than 100 µM each time.
Consider `O=[N+]([O-])c1ccc(CS(=O)Cc2ccccc2)cc1` (stereo not given), for which the concentration for total growth inhibition (TGI) with BT-549 breast, with MDA-N, with T-47D breast, in the test with MDA-MB-231 breast, with NCI/ADR-RES ovarian and in the test with MCF7 breast was greater than 100 µM throughout.
As for `CCOc1ccc(NC(=O)CC2SC(N)=NC2=O)cc1` (stereo not given), the TGI in the test with DMS 114 small cell lung and in the test on XF 498 CNS was greater than 100 µM each time.
For `Cc1ncc([N+](=O)[O-])n1CCNC(=O)CCCn1cnc([N+](=O)[O-])n1`, the TGI in the test on MDA-N, with T-47D breast, in the test with MDA-MB-231 breast, with NCI/ADR-RES ovarian and in the test on MCF7 breast was greater than 100 µM in each case.
In the case of `CN(C)c1ccc(C(N)=O)cn1`, the TGI in the test with BT-549 breast, in the test on MDA-N, in the test with MDA-MB-231 breast, in the test with NCI/ADR-RES ovarian and in the test with MCF7 breast was greater than 100 µM each time.
In the case of `CN(C)C(=O)C1CCC(=C2C(=O)OC(C)(C)OC2=O)N1C` (stereo not given), the TGI with DMS 114 small cell lung and in the test with XF 498 CNS was greater than 100 µM throughout.
With `Oc1cc(Cl)ccc1Oc1ccc(Cl)cc1Cl`, the GI50 in the test on BT-549 breast was 2.62 µM; in the test on T-47D breast it was 3.03 µM; in the test with MDA-MB-231 breast it was 2.16 µM; in the test with NCI/ADR-RES ovarian it was 2.81 µM; with MCF7 breast, 3.14 µM. Moreover, the TGI in the test on BT-549 breast came out at 5.95 µM; in the test with T-47D breast, 9.94 µM; with MDA-MB-231 breast, 4.95 µM; in the test on NCI/ADR-RES ovarian, 7.93 µM; in the test with MCF7 breast it was 10.6 µM.
